Results published in patent US20200061038A1, “THERAPEUTIC AGENT FOR FIBROSIS AND INHIBITOR OF NUCLEAR TRANSLOCATION OF PHOSPHORYLATED SMAD” (NATIONAL UNIVERSITY CORPORATION CHIBA UNIVERSITY, priority 2016, published 2020).

Tests used:
Smad2 = Smad2 nuclear localization (immunofluorescent staining, confocal) in HFL1 cells; type: cell-based, human; conditions: pretreatment PPMP 3 μM or NB-DNJ 100 μM, TGFβ1 10 ng/mL, 3 hours
Method: For immunostaining of Smad and phosphorylated Smad, ribonuclease A (RNase, Worthington Biochemical) (200 μg/mL, room temperature, 30 minutes) and propidium iodide (PI, Cayman Chemical) (20 μg/mL, room temperature, 30 minutes) were applied to stain the nucleus, and the stained images were observed using a confocal microscope (FV500 manufactured by Olympus).
When localization of Smad2/3 was observed, on the other hand, Smad2/3 accumulated in the nucleus in 3 hours after the single stimulation of TGFβ1 (10 ng/mL).

[1] = tested on: patient's pulmonary fibroblast cells; assay: αSMA expression (western blot) in patient's pulmonary fibroblast cells; type: cell-based, human; conditions: PPMP 0.5 μM, 1.0 μM; NB-DNJ 100 μM, 200 μM; cultured 48 hours
Method: Post-operative lung tissues were obtained from a lung transplant patient who was suffering from a serious case of pleuroparenchymal fibroelastosis.
The lung tissues were shredded, rinsed with phosphate-buffered saline (PBS), and then incubated at 37° C. for 15 minutes under gentle shaking, using 1 mg/ml collagenase type I (Worthington, Lakewood, N.J., USA), 0.5 mg/ml disperse (Life Technologies), 2 U/ml DNase (QIAGEN, Valencia, Calif., USA), 0.1 mg/ml streptomycin, and 100 U/ml penicillin.
The tissues were washed twice in DMEM, and then transferred into an 80-cm^2 culture flask and cultured at 37° C. in 5% CO2.
Cell growth was monitored every week, with the culture medium changed every four days. Once the flask reached confluent cultures, the cells were collected as cells at passage 0, and the cells obtained at passage 3 were used in the experiment as the patient's pulmonary fibroblast cells.
Patient's pulmonary fibroblast cells were cultured under the conditions of 95% air-5% CO2 and 37° C., using a Dulbecco's Modified Eagle Medium (DMEM) containing 10% fetal bovine serum (FBS), 100 μg/mL streptomycin, and 66.7 μg/mL penicillin.

PKCδ = assay: Translocation of PKCδ into the cellular membrane in HFL1 cells; type: cell-based, human; conditions: PPMP 3 μM, Rottlerin 1 μM applied beforehand, two hours after TGFβ1 10 ng/mL
Method: HFL1 cells were inoculated onto a 3.5-cm glass-bottom dish by 1.0×10^4 cells/dish, and then cultured in 2.0 mL of DMEM containing 10% FBS, to achieve 70% confluence. The cells were washed in HBSS containing 0.1% BSA, and then cultured in DMEM containing 0.1% BSA for 48 hours without serum.
Thereafter, the medium was replaced by a DMEM containing 0.1% BSA, and stimulation was given for a specified period using each reagent (each inhibitor was applied 30 minutes before the stimulant), after which each sample was fixed with 4% paraformaldehyde (PFA) at 4° C. for 15 minutes. Thereafter, as deemed appropriate, the sample was permeabilized (0.3% saponin, room temperature, 1 hour) and blocked (3% BSA, room temperature, 1 hour), with a primary antibody applied overnight at 4° C., and a secondary antibody applied for 1 hour at room temperature. For immunostaining of Smad and phosphorylated Smad, ribonuclease A (RNase, Worthington Biochemical) (200 μg/mL, room temperature, 30 minutes) and propidium iodide (PI, Cayman Chemical) (20 μg/mL, room temperature, 30 minutes) were applied to stain the nucleus, and the stained images were observed using a confocal microscope (FV500 manufactured by Olympus).
In general, activation of PKC is observed in the form of its translocation into the cellular membrane; accordingly, involvement of lactosylceramide was examined using the translocation of PKCδ into the cellular membrane as an indicator.

αSMA [2] = assay: αSMA expression (western blot) in TGFβ1-stimulated HFL1 cells; type: cell-based, human; conditions: PPMP 3 μM, NB-DNJ 100 μM applied 30 minutes before TGFβ1 (10 ng/mL), 24 hours
Method: Human pulmonary fibroblast (HFL1) (ATCC CCL-153) cells were cultured under the conditions of 95% air-5% CO2 and 37° C., using a Dulbecco's Modified Eagle Medium (DMEM) containing 10% fetal bovine serum (FBS), 100 μg/mL streptomycin, and 66.7 μg/mL penicillin.
How an increase in lactosylceramide synthesis activity due to TGFβ1 affects the fibrosing of tissues was examined based on the expression level of αSMA, which is a fibrosing marker protein.

Smad2/3 = conditions: HFL1 cells; PPMP 3 μM applied 30 minutes before TGFβ1 (10 ng/mL) treatment; over time
Method: HFL1 cells were inoculated onto a six-well plate by 1.0×10^5 cells/well, and then cultured in 2.0 mL of DMEM containing 10% FBS, to achieve 70% confluence. The cells were washed using Hanks' balanced salt solution (HBSS) containing 0.1% bovine serum albumin (BSA) (4.2 mM NaHCO3, 137 mM NaCl, 5.36 mM KCl, 0.4 mM MgSO4.7H2O, 0.34 mM Na2HPO4.12H2O, 5.55 mM glucose, 0.44 mM KH2PO4, 0.72 mM CaCl2.H2O, pH=7.4), and then cultured in a DMEM containing 0.1% BSA for 48 hours without serum. […]
The cells were crushed according to the vortex method, centrifuged under the conditions of 15000 rpm and 4° C. for 30 minutes, and the supernatant was taken as a sample. Quantitative determination of protein was performed according to the Bradford method, and a specified amount of protein was separated by SDS-polyacrylic amide gel electrophoresis. […]
Thereafter, the PVDF film was soaked in an ECL solution and fluorometric detection was performed using an image capture/analysis system (ChemiDocMP System manufactured by Bio-Rad). The detected bands were converted to numerical values using image processing software (ImageJ).

[3] = tested on: lactosylceramide synthase; assay: Lactosylceramide synthesis activation test; type: cell-based, human; conditions: HFL1 cells; PPMP 3 μM, NB-DNJ 100 μM applied 30 minutes before TGFβ1 (10 ng/mL) stimulation
Method: The experiment was conducted by referring to Chatterjee S, Pandey A. The Yin and Yang of lactosylceramide metabolism: implications in cell function. Biochim Biophys Acta. 2008 March; 1780 (3); 370-82.
The sample was put through quantitative determination of protein, and then 300 μM of […], 100 μM of uridine diphosphate galactose (UDP-Gal, containing 7.5×10^5 dpm of [^3H] UDP-Gal), and reaction buffer, were added to 50 μL of sample, to a final volume of 100 μL/tube. This reaction sample was incubated for 2 hours at 37° C., and finally 50 mM of KCl and 25 mM of EDTA were added to stop the reaction. Thereafter, lipids were extracted from the sample according to the Bligh-Dyer method, and all lipids were expanded using TLC (chloroform:methanol:water=100:42:6). The separated lipids were stained using iodine gas, silica gel at the same position as the lactosylceramide target was scraped off, and its radiation activity was measured using a liquid scintillation counter (Aloka LSC-5100 manufactured by Hitachi-Aloka Medical), and then the amount of synthesized lactosylceramide was calculated. It should be noted that, for the background sample(control), a sample with zero incubation time was used.
Whether or not TGFβ1 treatment would increase the synthesis of lactosylceramide was examined in vitro. […]

αSMA [4] = assay: Bleomycin-induced pulmonary fibrosis mouse model: lung αSMA western blot; type: in vivo, C57BL/6J mice; conditions: mice; 20 mg/kg NB-DNJ into the bronchial tubes on days 7, 8, 9 after bleomycin; lungs on 14th day
Method: 50 μL of 3 mg/kg bleomycin hydrochloride/saline solution (Nippon Kayaku Co., Ltd.) was administered through the bronchial tubes to C57BL/6J mice (male, 8 to 12 weeks old) under tribromoethanol-ether anesthesia, to prepare mouse models for pulmonary fibrosis. 50 μL of saline solution was administered in the same manner to a control group not treated with bleomycin hydrochloride.
Seven, eight and nine days after the administration of bleomycin, 50 μL of 20 mg/kg NB-DNJ/saline solution was administered into the bronchial tubes of the mice under tribromoethanol-ether anesthesia. 50 μL of saline solution was administered into the bronchial tubes to a control group of mice not administered with NB-DNJ.
On the 14th day after the administration of bleomycin, each mouse was subjected to thoracotomy under deep ether anesthesia, and its entire body was perfused with PBS from the left ventricle using a syringe needle, while blood was removed from the lungs through the right ventricle, and the lungs were removed.
Thereafter, the tissues were further pulverized using a homogenizer, and centrifuged at 15000 rpm and 4° C. for 30 minutes.

[5] = tested on: bleomycin-induced fibrosing of the lung; assay: Bleomycin-induced pulmonary fibrosis mouse model: hematoxylin eosin-stained lung slices; type: in vivo, C57BL/6J mice; conditions: mice, lungs on 14th day
Method: 50 μL of 3 mg/kg bleomycin hydrochloride/saline solution (Nippon Kayaku Co., Ltd.) was administered through the bronchial tubes to C57BL/6J mice (male, 8 to 12 weeks old) under tribromoethanol-ether anesthesia, to prepare mouse models for pulmonary fibrosis. 50 μL of saline solution was administered in the same manner to a control group not treated with bleomycin hydrochloride. Seven, eight and nine days after the administration of bleomycin, 50 μL of 20 mg/kg NB-DNJ/saline solution was administered into the bronchial tubes of the mice under tribromoethanol-ether anesthesia. 50 μL of saline solution was administered into the bronchial tubes to a control group of mice not administered with NB-DNJ. For 7 to 13 consecutive days after the administration ofbleomycin, 0.2 mL of 600 mg/kg NB-DNJ/saline solution was orally administered daily (once a day). As control group mice which were not administrated with NB-DNJ, 0.2 mL of saline solution was orally administered. On the 14th day after the administration of bleomycin, each mouse was subjected to thoracotomy under deep ether anesthesia, and its entire body was perfused with PBS from the left ventricle using a syringe needle, while blood was removed from the lungs through the right ventricle, and the lungs were removed. The lungs were soaked in 4% paraformaldehyde and fixed overnight at 4° C. […]

Row | Molecule | accumulation of Smad2 in the nucleus due to TGFβ1 (Smad2) | expression of αSMA in patient's pulmonary fibroblast cells [1] | translocation of PKCδ into the cellular membrane due to TGFβ1 (PKCδ) | increase in the αSMA expression level due to TGFβ1 (αSMA [2]) | phosphorylation levels of Smad2/3 (Smad2/3) | activity of the lactosylceramide synthase after TGFβ1 stimulation [3] | expression of αSMA in lung in the presence of bleomycin (αSMA [4]) | bleomycin-induced fibrosing of the lung, bronchial-tube-administration ([5]; 20 mg/kg NB-DNJ into the bronchial tubes on days 7, 8, 9 after bleomycin) | bleomycin-induced fibrosing of the lung, oral administration ([5]; 600 mg/kg NB-DNJ orally once a day, days 7 to 13 after bleomycin)
1 | 1-phenyl-2-hexadecanoyl amino-3-morpholino-1-propanol [PPMP] | suppressed the accumulation of Smad2 in the nucleus | the expression of αSMA is suppressed | translocation of PKCδ into the cellular membrane was suppressed | suppressed increase in the αSMA expression level | did not change the phosphorylation levels of Smad2/3 over time | suppressed the activity of the lactosylceramide synthase significantly | – | – | –
2 | CCCCN1C[C@H](O)[C@@H](O)[C@H](O)[C@H]1CO [NB-DNJ, N-butyl deoxynojirimycin] | suppressed the accumulation of Smad2 in the nucleus | the expression of αSMA is suppressed | – | suppressed increase in the αSMA expression level | – | suppressed the activity of the lactosylceramide synthase significantly | the expression of αSMA is suppressed | suppress the bleomycin-induced fibrosing of the lung | suppress the bleomycin-induced fibrosing of the lung
